According to ChEMBL document CHEMBL4651402, “Screening of ~5500 FDA-approved drugs and clinical candidates for anti-SARS-CoV-2 activity” (2021):

Test system: SARS-CoV-2
Assay: microbe, parasite or virus in culture
Details: Severe acute respiratory syndrome coronavirus 2, Vero C1008, 48 h

Work on `CC(C)C(=O)OC[C@H]1O[C@@H](n2ccc(N)nc2=O)[C@](C)(F)[C@@H]1OC(=O)C(C)C` [MERICITABINE] yielded an IC50 of over 20 µM and an IC50 (read-out: pIC50 (converted)) of over 20 µM.

For `CCCCCCCCCCCC(=O)OCC(O)CO` (stereo unspecified) [GLYCEROL MONOLAURATE], the IC50 was over 20 µM and the IC50 (read-out: pIC50 (converted)) was over 20 µM.

In the case of `CCc1cc2c(cc1N1CCC(N3CCOCC3)CC1)C(C)(C)c1[nH]c3cc(C#N)ccc3c1C2=O` [ALECTINIB], the IC50 is reported as over 20 µM and the IC50 (read-out: pIC50 (converted)) is reported as over 20 µM.

For `CC(C)(O)[C@@H]1CC[C@](C)(C2[C@@H](O)C[C@@]3(C)[C@H]4C[C@H](O[C@H]5OC(CO)[C@H](O)C(O)C5O)[C@H]5C(C)(C)C(O[C@@H]6OC[C@@H](O)C(O)C6O)CC[C@@]56C[C@@]46CC[C@]23C)O1` (stereo partly specified), the IC50 was over 20 µM and the IC50 (read-out: pIC50 (converted)) was over 20 µM.

In the case of `CC(=O)Oc1ccccc1C(=O)Oc1ccccc1C(=O)O` [DIPLOSALSALATE], the IC50 is reported as over 20 µM and the IC50 (read-out: pIC50 (converted)) is reported as over 20 µM.

`O=C(O)[C@]1(O)C[C@H](O)[C@@H](O)[C@@H](O)C1` gave an IC50 of over 20 µM and an IC50 (read-out: pIC50 (converted)) of over 20 µM.

With `CNC(=O)Oc1ccc2c(c1)[C@]1(C)CCN(C)C1N2C` (stereo partly specified) the IC50 was over 20 µM and the IC50 (read-out: pIC50 (converted)) was over 20 µM.

Molecule `C/C(O)=C(\C#N)C(=O)Nc1ccc(C(F)(F)F)cc1` [TERIFLUNOMIDE] has an IC50 of over 20 µM and an IC50 (read-out: pIC50 (converted)) of over 20 µM.

For `COc1cc([S+](C)[O-])ccc1-c1nc2cccnc2[nH]1` (stereo unspecified) [SULMAZOLE], the IC50 was over 20 µM and the IC50 (read-out: pIC50 (converted)) was over 20 µM.

`CC(C)CCCC(C)C1CCC2C3CCC4CC(=O)CCC4(C)C3CCC12C` (stereo unspecified) showed an IC50 of over 20 µM and an IC50 (read-out: pIC50 (converted)) of over 20 µM.

For `CCC(=O)OC(CC(=O)O)C[N+](C)(C)C` (stereo unspecified), the IC50 was over 20 µM and the IC50 (read-out: pIC50 (converted)) was over 20 µM.

Work on `CC1C(=O)CC[C@@H]2C1(C)CC[C@H]1C2(C)CCC2(C)C3CC(C)(C)CCC3(C)CCC12C` (stereo partly specified) yielded an IC50 of over 20 µM and an IC50 (read-out: pIC50 (converted)) of over 20 µM.

Molecule `CCNC1=Nc2ccc(Cl)cc2C(C)(c2ccccc2)O1` (stereo unspecified) [ETIFOXINE] has an IC50 of over 20 µM and an IC50 (read-out: pIC50 (converted)) of over 20 µM.

For `CC(C)(C)NCC(O)COc1ccccc1C#N` (stereo unspecified) [BUNITROLOL], the IC50 was over 20 µM and the IC50 (read-out: pIC50 (converted)) was over 20 µM.

For `N=C(NO)N/N=C/c1c(Cl)cccc1Cl` [GUANOXABENZ], the IC50 was over 20 µM and the IC50 (read-out: pIC50 (converted)) was over 20 µM.

Work on `CCOC(=O)c1ccc(OC(=O)CCCCCNC(=N)N)cc1` [GABEXATE] yielded an IC50 of over 20 µM and an IC50 (read-out: pIC50 (converted)) of over 20 µM.

For `N=C(N)NN=C1C=CC(=NNC(N)=S)C=C1` [AMBAZONE], the IC50 was over 20 µM and the IC50 (read-out: pIC50 (converted)) was over 20 µM.

`COc1ccc2c3c([nH]c2c1)C(C)=NCC3` [HARMALINE] showed an IC50 of over 20 µM and an IC50 (read-out: pIC50 (converted)) of over 20 µM.

With `CCN1C[C@]2(OC(=O)c3ccccc3NC(C)=O)CC[C@H](OC)[C@@]34[C@@H]2C[C@@H]([C@@H]13)[C@@]1(O)C[C@H](OC)[C@H]2C[C@@H]4[C@]1(O)[C@H]2OC` the IC50 was over 20 µM and the IC50 (read-out: pIC50 (converted)) was over 20 µM.

In the case of `Cn1cnc([N+](=O)[O-])c1Sc1ncnc2[nH]cnc12` [AZATHIOPRINE], the IC50 is reported as over 20 µM and the IC50 (read-out: pIC50 (converted)) is reported as over 20 µM.

With `Cc1ccc(COC(=O)N2CC[C@H](CNc3ncccn3)[C@H](F)C2)cc1` [RISLENEMDAZ] the IC50 was over 20 µM and the IC50 (read-out: pIC50 (converted)) was over 20 µM.

For `CNC(=O)c1ccc(N2C(=S)N(c3cnc(C#N)c(C(F)(F)F)c3)C(=O)C23CCC3)cc1F` [APALUTAMIDE], the IC50 was over 20 µM and the IC50 (read-out: pIC50 (converted)) was over 20 µM.

`CC(C(=O)O)c1ccc2oc(-c3ccc(Cl)cc3)nc2c1` (stereo unspecified) [BENOXAPROFEN] showed an IC50 of over 20 µM and an IC50 (read-out: pIC50 (converted)) of over 20 µM.

`NCc1ccc2c(c1)nc(CN1C(=O)C3(CC3)c3ccc(F)cc31)n2CCCC(F)(F)F` [SISUNATOVIR] showed an IC50 of over 20 µM and an IC50 (read-out: pIC50 (converted)) of over 20 µM.

Molecule `[2H]c1c([2H])c(-c2ccc(F)cc2F)c([2H])c(C(=O)O)c1O` has an IC50 of over 20 µM and an IC50 (read-out: pIC50 (converted)) of over 20 µM.

With `CCCCOc1ccc(C(=O)CCN2CCCCC2)cc1` [DYCLONINE] the IC50 was over 20 µM and the IC50 (read-out: pIC50 (converted)) was over 20 µM.

For `COc1ccc(CCNCCC(=O)N2CCCSc3ccccc32)cc1OC`, the IC50 was over 20 µM and the IC50 (read-out: pIC50 (converted)) was over 20 µM.

`CCOC(=O)C1=C(C)NC(C)=C(C(=O)OC)C1c1cccc(Cl)c1Cl` (stereo unspecified) [FELODIPINE] was tested, and the IC50 was over 20 µM and the IC50 (read-out: pIC50 (converted)) was over 20 µM.

`C/C(=N/NC(=N)N)c1cc(NC(=O)CCCCCCCCC(=O)Nc2cc(/C(C)=N\NC(=N)N)cc(/C(C)=N/NC(=N)N)c2)cc(/C(C)=N/NC(=N)N)c1` gave an IC50 of over 20 µM and an IC50 (read-out: pIC50 (converted)) of over 20 µM.

`COc1ccc2cc(CCC(C)=O)ccc2c1` [NABUMETONE] showed an IC50 of over 20 µM and an IC50 (read-out: pIC50 (converted)) of over 20 µM.

For `C1CCc2nnnn2CC1` [PENTYLENETETRAZOL], the IC50 was over 20 µM and the IC50 (read-out: pIC50 (converted)) was over 20 µM.

In the case of `COc1ccc2c(c1)CC[C@H](CN(C)CC(=O)O)[C@@H]2c1ccccc1` [ORG-25935], the IC50 is reported as over 20 µM and the IC50 (read-out: pIC50 (converted)) is reported as over 20 µM.

`CC1(C)OC2CC3C4CC(F)C5=CC(=O)C=CC5(C)C4(Cl)C(Cl)CC3(C)C2(C(=O)CCl)O1` (stereo unspecified) gave an IC50 of over 20 µM and an IC50 (read-out: pIC50 (converted)) of over 20 µM.
